Test results from US20080220444A1, “Bone Marrow Proliferation Assay” (priority 2003, published 2008).

Assays:
human bone marrow cells [1] = assay: Traditional CFU-GM colony-forming assay (myelotoxicity); format: cell-based
Protocol: Bone marrow was enriched after ficoll hypaque density centrifugation. 1×10^5 bone marrow cells per dish, containing METHOCULT GF H4534 (1% methylcellulose, 30% FBS, 1% BSA, 10^-4 M 2-ME, 2 mM L-gln, 50 ng/mL recombinant human (rh) stem cell factor (SCF), 10 ng/mL rh granulocyte/macrophage-colony stimulating factor (GM-CSF), and 10 ng/mL rh interleukin-3 (IL-3). METHOCULT was obtained from StemCell Technologies (Vancouver, BC, Canada). Cultures were treated with various concentrations of test compounds for the entire culture period. Cultures were performed in duplicate and were incubated for ˜14 days at 37° C. in 5% CO2 and scored for colony growth (colony-forming units-granulocyte/macrophage, or CFU-GM) with a phase-contrast inverted microscope. Colonies containing >50 cells were considered positive.

human bone marrow cells [2] = assay: Bone marrow proliferation assay (3H-thymidine uptake, cytokine-activated cells); format: cell-based; details: Bone marrow cell; for IC50: concentration inhibiting proliferation by 50%
Protocol: Bone marrow (BM) was obtained from human donors, collected in Dulbecco's phosphate buffered saline (DPBS) containing 200 units/mL of heparin. The BM cells were then processed as described below. ROSETTESEP™ cocktail was added to the BM cells at a ratio of 50 μL of cocktail per 1 mL of cells in a test tube and the tubes were mixed well by repeated inversion. This mixture was then incubated at room temperature for approximately 20 minutes. A mixture containing PBS/2% FBS/1 mM EDTA was prepared and the BM sample was mixed in a 1:2 ratio (e.g., 10 mL marrow+20 mL PBS/2% FBS/1 mM EDTA) and gently mixed by inversion. […] Cells were counted and viability checked and cells were adjusted to 5×10^5/mL in complete medium containing the following human recombinant growth factors/cytokines at the indicated final concentrations (cytokines may be obtained from various sources; those from StemCell Technologies were used herein): • Stem Cell Factor (50 ng/mL) • GM-CSF (20 ng/mL) • IL-3 (20 ng/mL) • IL-6 (20 ng/mL) • G-CSF (20 ng/mL)
Flat-bottom microtiter tissue culture plates (96 well) were used for the assay. Cells were placed in wells so that each well contained 5×10^4 cells. Typically, cultures were performed in triplicate wells. Wells were brought to a final volume of 200 μL with either complete medium or various concentrations of test compounds, which were diluted in complete medium. Plates were covered with plastic wrap (to reduce evaporation) and placed in a humidified 5% CO2 incubator at 37° C. for 3 days.

[3] = CFU-GM, 336 h, CFU-GM, concentration inhibiting colony growth by 50%, linear regression, ~14 days, mean +/- spread
[4] = CFU-GM, 336 h, CFU-GM, concentration inhibiting colony growth by 90%, linear regression, ~14 days, mean +/- spread
[5] = 72 h, Prolif., linear regression, 3 days, mean +/- spread
[6] = Bone marrow cell, Colony-forming Assay, intra-assay variation, equal to the mean of the five determinations
[7] = Bone marrow cell, Colony-forming Assay, intra-assay variation, individual determinations
[8] = 72 h, Prolif., concentration inhibiting proliferation by 90%, linear regression, 3 days, mean +/- spread, read-out: IC90

Structure (SMILES) | IC50 (human bone marrow cells [1]; [3]) | IC90 (human bone marrow cells [1]; [4]) | IC90 (human bone marrow cells [2]; 72 h) | IC50 (human bone marrow cells [2]; [5]) | IC50 (human bone marrow cells [1]; [6]) | IC90 (human bone marrow cells [1]; [6]) | IC50 (human bone marrow cells [1]; [7]) | IC90 (human bone marrow cells [1]; [7]) | IC90 (human bone marrow cells [2]; [8]) | IC90 (human bone marrow cells [2]; Proliferation Assay, intra-assay variation, equal to the mean of the five determinations, read-out: IC90) | IC90 (human bone marrow cells [2]; Proliferation Assay, intra-assay variation, individual determinations, read-out: IC90)
Cc1cn([C@H]2C[C@H](N=[N+]=[N-])[C@@H](CO)O2)c(=O)[nH]c1=O [AZT, 3′-azido-3′-deoxythymidine] | 34.5 µM | 387 µM | 146 µM | 17.1 µM |  |  |  |  |  |  | 
COc1cccc2c1C(=O)c1c(O)c3c(c(O)c1C2=O)C[C@@](O)(C(=O)CO)C[C@@H]3O[C@H]1C[C@H](N)[C@H](O)[C@H](C)O1 [Doxorubicin, doxorubicin] | 0.04 µM | 0.132 µM |  |  | 0.0291 µM | 0.0692 µM | 0.0342 µM | 0.0724 µM | 0.068 µM | 0.0702 µM | 0.0712 µM
Nc1ccn([C@@H]2O[C@H](CO)[C@@H](O)C2(F)F)c(=O)n1 [Gemcitabine, gemcitabine] | 0.0013 µM | 0.0042 µM |  | 0.0012 µM |  |  |  |  | 0.0044 µM |  | 
CC(=O)O[C@H]1C(=O)[C@@]2(C)[C@H]([C@H](OC(=O)c3ccccc3)[C@]3(O)C[C@H](OC(=O)[C@H](O)[C@@H](NC(=O)c4ccccc4)c4ccccc4)C(C)=C1C3(C)C)[C@]1(OC(C)=O)CO[C@@H]1C[C@@H]2O [Paclitaxel, paclitaxel] | 0.0034 µM | 0.006 µM |  | 0.0019 µM |  |  |  |  | 0.0049 µM |  | 
Nc1ccn([C@@H]2S[C@H](CO)[C@@H](O)[C@@H]2O)c(=O)n1 [Thio-ara-C, thio-ara-C] | 0.0403 µM | 0.122 µM |  | 0.075 µM |  |  |  |  | 0.301 µM |  | 
